Assay results taken from the supplement of paper PMC10627819.
Values after ≈ are worked out from the molar mass of the structure shown.

Legend:
S. aureus DSM 20231 [1] = assay: fitness (endpoint OD595 vs no drug) (fraction); higher = more growth
In short: (§1)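 With the first reading as background, OD595 was measured every 30 min for 14 h in 384-well plates kept at 37 °C and inoculated at OD595 0.01. TSB, LB Lennox or CY was the medium. Fitness is the optical density at the transition into stationary phase divided by the robust mean of no-drug control wells, with a cap of 1.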

S. pneumoniae D39V [2] = assay: as above
In short: as §1

S. aureus Newman [3] = assay: as above
In short: as §1

B. subtilis 168 [4] = assay: as above
In short: as §1

S. pneumoniae D39V [5] = tested on: S. pneumoniae D39V
S. aureus Newman [6] = tested on: S. aureus Newman
B. subtilis 168 [7] = tested on: B. subtilis 168
S. aureus DSM 20231 [8] = tested on: S. aureus DSM 20231

CC1=C\[C@@H](O)CC(=O)Cc2nc(co2)C(=O)N2CCC=C2C(=O)O[C@H](C(C)C)[C@H](C)/C=C/C(=O)NC\C=C\1 [Virginiamycin M1]
fitness
Conditions	0.0625 µg/mL	0.125 µg/mL	0.25 µg/mL	0.5 µg/mL	1 µg/mL	2 µg/mL
B. subtilis 168 [4]	0.956	0.943	0.959	–	–	–
S. aureus DSM 20231 [1]	0.994	≥ 1	≥ 1	–	–	–
S. aureus Newman [3]	0.989	1	≥ 1	–	–	–
S. pneumoniae D39V [2]	–	–	–	≥ 1	0.997	0.994

Conditions	MIC [µg/mL]
B. subtilis 168 [7]	0.5 (≈ 0.951 µM)
S. aureus Newman [6]	2 (≈ 3.81 µM)
S. pneumoniae D39V [5]	4 (≈ 7.61 µM)

Clc1ccc(COC(Cn2ccnc2)c2ccc(Cl)cc2Cl)c(Cl)c1 (configuration not stated) [Miconazole]
S. pneumoniae D39V [2]
Conditions	fitness
1.25 µg/mL	0.907
2.5 µg/mL	0.893
5 µg/mL	0.926

Conditions	MIC [µg/mL]
B. subtilis 168 [7]	5 (≈ 12 µM)
S. aureus DSM 20231 [8]	5 (≈ 12 µM)
S. aureus Newman [6]	3 (≈ 7.21 µM)
S. pneumoniae D39V [5]	10 (≈ 24 µM)

O=C(O)[C@H]1/C(=C/CO)O[C@@H]2CC(=O)N21 [Clavulanic acid]
fitness
Conditions	0.5 µg/mL	1 µg/mL	1.5 µg/mL	2 µg/mL	3 µg/mL	6 µg/mL
B. subtilis 168 [4]	–	–	0.899	–	0.887	0.769
S. pneumoniae D39V [2]	0.966	0.939	–	0.867	–	–

Conditions	MIC [µg/mL]
B. subtilis 168 [7]	8 (≈ 40.2 µM)
S. aureus DSM 20231 [8]	0.5 (≈ 2.51 µM)
S. aureus Newman [6]	0.5 (≈ 2.51 µM)
S. pneumoniae D39V [5]	2 (≈ 10 µM)

C[n+]1ccc(-c2cc[n+](C)cc2)cc1 [Paraquat]
fitness
Conditions	1.25 µg/mL	1.5 µg/mL	2.5 µg/mL	3 µg/mL	5 µg/mL	6 µg/mL
B. subtilis 168 [4]	0.912	–	0.899	–	0.848	–
S. aureus DSM 20231 [1]	≥ 1	–	0.99	–	0.988	–
S. aureus Newman [3]	0.986	–	0.944	–	0.94	–
S. pneumoniae D39V [2]	–	0.992	–	0.993	–	0.965

Conditions	MIC [µg/mL]
B. subtilis 168 [7]	50
S. aureus DSM 20231 [8]	50
S. aureus Newman [6]	50
S. pneumoniae D39V [5]	10

Cc1onc(-c2ccccc2)c1C(=O)N[C@@H]1C(=O)N2[C@@H]1SC(C)(C)[C@@H]2C(=O)O [Oxacillin]
Conditions	fitness
B. subtilis 168 [4], 0.002 µg/mL	0.925
B. subtilis 168 [4], 0.004 µg/mL	0.936
B. subtilis 168 [4], 0.0078 µg/mL	0.941
B. subtilis 168 [4], 0.008 µg/mL	0.962
B. subtilis 168 [4], 0.0155 µg/mL	0.952
B. subtilis 168 [4], 0.031 µg/mL	0.902
S. aureus DSM 20231 [1], 0.0156 µg/mL	0.972
S. aureus DSM 20231 [1], 0.0312 µg/mL	0.889
S. aureus DSM 20231 [1], 0.0625 µg/mL	0.621
S. aureus Newman [3], 0.0156 µg/mL	0.843
S. aureus Newman [3], 0.0312 µg/mL	0.759
S. aureus Newman [3], 0.0625 µg/mL	0.608
S. pneumoniae D39V [2], 0.005 µg/mL	≥ 1
S. pneumoniae D39V [2], 0.01 µg/mL	0.996
S. pneumoniae D39V [2], 0.02 µg/mL	0.986
S. pneumoniae D39V [2], 0.04 µg/mL	0.515

Conditions	MIC [µg/mL]
S. aureus DSM 20231 [8]	0.069 (≈ 0.172 µM)
S. aureus Newman [6]	0.069 (≈ 0.172 µM)
S. pneumoniae D39V [5]	0.031 (≈ 0.0772 µM)

CC[C@H]1OC(=O)[C@H](C)[C@@H](O[C@H]2C[C@@](C)(OC)[C@@H](O)[C@H](C)O2)[C@H](C)[C@@H](O[C@@H]2O[C@H](C)C[C@H](N(C)C)[C@H]2O)[C@](C)(O)C[C@@H](C)CN(C)[C@H](C)[C@@H](O)[C@]1(C)O [Azithromycin]
fitness
Conditions	0.125 µg/mL	0.25 µg/mL	0.5 µg/mL	1 µg/mL	2 µg/mL
B. subtilis 168 [4]	–	0.891	0.869	0.699	0.0641
S. aureus DSM 20231 [1]	0.994	0.914	0.508	0.834	–
S. aureus Newman [3]	0.93	0.901	0.706	–	–
S. pneumoniae D39V [2]	–	0.524	0.323	0.096	–

Conditions	MIC [µg/mL]
B. subtilis 168 [7]	2 (≈ 2.67 µM)
S. aureus DSM 20231 [8]	0.556 (≈ 0.742 µM)
S. aureus Newman [6]	0.5 (≈ 0.668 µM)
S. pneumoniae D39V [5]	2 (≈ 2.67 µM)

Cn1c2cccc(=O)c-2nc2ccccc21 [Pyocyanin]
fitness
Conditions	0.325 µg/mL	0.65 µg/mL	1.25 µg/mL	1.3 µg/mL	2.5 µg/mL	5 µg/mL
B. subtilis 168 [4]	–	–	0.886	–	0.841	0.708
S. aureus DSM 20231 [1]	–	–	0.997	–	0.892	0.59
S. aureus Newman [3]	–	–	0.896	–	0.843	0.399
S. pneumoniae D39V [2]	≥ 1	0.991	–	0.835	–	–

Conditions	MIC [µg/mL]
B. subtilis 168 [7]	5 (≈ 23.8 µM)
S. aureus DSM 20231 [8]	5 (≈ 23.8 µM)
S. aureus Newman [6]	5 (≈ 23.8 µM)
S. pneumoniae D39V [5]	1.44 (≈ 6.85 µM)

CNC(C)C1CCC(N)C(OC2C(N)CC(N)C(OC3OCC(C)(O)C(NC)C3O)C2O)O1 (configuration not stated) [Gentamicin]
main component drawn
Conditions	fitness
B. subtilis 168 [4], 0.0625 µg/mL	0.887
B. subtilis 168 [4], 0.125 µg/mL	0.131
B. subtilis 168 [4], 0.25 µg/mL	0.0542
S. aureus DSM 20231 [1], 0.5 µg/mL	≥ 1
S. aureus DSM 20231 [1], 1 µg/mL	≥ 1
S. aureus DSM 20231 [1], 2 µg/mL	0.984
S. aureus DSM 20231 [1], 4 µg/mL	0.129
S. aureus Newman [3], 0.375 µg/mL	≥ 1
S. aureus Newman [3], 0.5 µg/mL	0.996
S. aureus Newman [3], 0.75 µg/mL	≥ 1
S. aureus Newman [3], 1 µg/mL	0.992
S. aureus Newman [3], 1.5 µg/mL	0.583
S. aureus Newman [3], 2 µg/mL	0.999
S. aureus Newman [3], 4 µg/mL	0.302
S. pneumoniae D39V [2], 2 µg/mL	1
S. pneumoniae D39V [2], 4 µg/mL	0.986
S. pneumoniae D39V [2], 8 µg/mL	0.962

main component drawn
Conditions	MIC [µg/mL]
B. subtilis 168 [7]	0.25 (≈ 0.523 µM)
S. aureus DSM 20231 [8]	2 (≈ 4.19 µM)
S. aureus Newman [6]	2 (≈ 4.19 µM)
S. pneumoniae D39V [5]	18 (≈ 37.7 µM)
